# Data taken from the OPERA property sets (Mansouri et al. 2018).
# Details: not given
SMILES,log10 vapour pressure (mmHg),melting point [°C],boiling point [°C],ready biodegradability,log10 biodegradation half-life (days),log10 Koc (L/kg),log10 Henry constant (atm·m³/mol),log10 Koa
CC(C)N1C(=O)N(c2ccccc2)CSC1=NC(C)(C)C,-5.03,105,,,,,,
CCCC/C=C/CCCC,,-73,171,,,,,
Nc1ccc(OCCCCCN2C(=O)c3ccccc3C2=O)cc1,,114,,,,,,
CCCC(C)C(C)(C)O (stereo not drawn),,,160,,,,,
CCc1cc(CC)c(CC)c(CC)c1CC,,,277,,,,,
COc1cc(C(=O)O)ccc1O,,212,,readily biodegradable,,,,
COc1ccccc1C1CCCCC1,,,268,,,,,
C[C@@H]1O[C@@H](O[C@H]2CC[C@]3(C=O)[C@H]4CC[C@]5(C)[C@@H](C6=CC(=O)OC6)CC[C@]5(O)[C@@H]4CC[C@]3(O)C2)[C@H](O)[C@H](O)[C@H]1O,,238,,,,,,
O=C(O)c1cc2ccccc2cc1O,,222,,not readily biodegradable,,,,
C[C@]12CC[C@H](O)CC1=CC[C@@H]1[C@@H]2CC[C@]2(C)C(=O)CC[C@@H]12,,140,,,,,,
ClCC1CC1,,-90.9,88,,,,,
CC#CCCC,,-89.6,84.5,,,,,
CC1=C(/C=C/C(C)=C/C=C/C(C)=C/C=C/C=C(C)/C=C/C=C(C)/C=C/C2=C(C)C[C@H](O)CC2(C)C)C(C)(C)CCC1,,160,,,,,,
CCCCCCCCCCCC,-0.87,-9.6,216,readily biodegradable,1,,,
Cc1cccc[n+]1[O-],,49,,,,,,
OCc1c(Cl)cccc1Cl,,98,,,,,,
COP(N)(=O)SC (stereo not drawn),-4.45,46,,,,0.7,,
O=C1NC(=O)c2ccccc21,,238,,readily biodegradable,,,,
COc1cc(OC)cc(O[C@H]2O[C@H](CO)[C@@H](O)[C@H](O)[C@H]2O)c1,,170,,,,,,
N#CCCCBr,,,206,,,,,
Cc1cccc(O)c1C,-1.05,72.8,217,,,,-6.13,
CCc1ccc2cc(O)c(O)cc2c1,,149,,,,,,
CCC(C)CCBr (stereo not drawn),,,148,,,,,
CC1(C)[C@@H]2CC[C@]1(C)[C@H](O)C2,-1.3,,,,,,,

SMILES,log10 vapour pressure (mmHg),melting point [°C],boiling point [°C],ready biodegradability,log10 biodegradation half-life (days),log10 Koc (L/kg),log10 Henry constant (atm·m³/mol),log10 Koa
CCCN(CCC)C(=O)SCc1ccccc1,-6.29,,,,,,,
CCc1cc(C)nc(C)c1,,97,188,,,,,
O=C1c2ccccc2C(=O)c2c1cc(S(=O)(=O)[O][Na])c(O)c2O,,,,not readily biodegradable,,,,
CCCCOCC(C)O (stereo not drawn),,,172,readily biodegradable,,,,
CCCCCCCCCCCCCCCC(C)C,,5.7,311,,,,,
CCCC(C)C(C)CCC (stereo not drawn),,,162,,,,,
C=CCC(=O)OCC,,,119,,,,,
CNC[C@H](O)c1cccc(O)c1.Cl,,142,,,,,,
CC(CN1c2ccccc2Sc2ccccc21)[N+](C)(C)CCO.[Cl-] (stereo not drawn),,233,,,,,,
Clc1ccc(Oc2ccccc2)cc1,-2.57,,284,,,,,
Oc1cc(O)c2c(c1)O[C@H](c1ccc(O)c(O)c1)[C@@H](O)C2,,,,,,2.03,,
O=C(O)C(Cl)=C(Cl)Cl,,76,222,,,,,
CC(F)(F)C(F)(F)F,3.54,,-17.4,,,,,
c1cc2c3c(c1)CCCN3CCC2,,40,,,,,,
Oc1ccc(-c2ccccc2)cc1,,166,305,not readily biodegradable,,,,
COc1cc2c(cc1OC)C(CCc1ccc(Cl)cc1)N(C)CC2 (stereo not drawn),,110,,,,,,
CCCCCCCCNC(C)C(O)c1ccc(SC(C)C)cc1 (stereo not drawn),,62.5,,,,,,
Cc1cc(O)c(C(C)(C)C)cc1C(C)(C)C,,62.1,282,,,,,
O=[N+]([O-])c1cccc(Br)c1,-1.15,56,256,,,,,
Nc1nc(N)nc(-c2cc(Cl)ccc2Cl)n1,,268,,,,,,
CCOP(=S)(OCC)SC(CCl)N1C(=O)c2ccccc2C1=O (stereo not drawn),-7.21,68,,,,,,
NN=C(c1ccccc1)c1ccccc1,,96.5,,,,,,
O=C(O)/C(=C\c1ccccc1)c1ccccc1,,172,,,,,,
C=CCCCCC(=O)O,,-6.5,226,,,,,

SMILES,log10 vapour pressure (mmHg),melting point [°C],boiling point [°C],ready biodegradability,log10 biodegradation half-life (days),log10 Koc (L/kg),log10 Henry constant (atm·m³/mol),log10 Koa
C1=CCC1,,,2,,,,,
Brc1cc2ccccc2c2ccccc12,,64.5,,,,,,
CC(C)(C)NC[C@H](O)COc1ccccc1C1CCCC1,,70,,,,,,
Cc1ccccc1OP(=O)(Oc1ccccc1C)Oc1ccccc1C,,,,readily biodegradable,,,,
CCCCN(C)C,,,95,,,,,
Nc1ccc2ccccc2c1S(=O)(=O)O,,180,,not readily biodegradable,,,,
Cc1cc(O)cc(C)c1Cl,,115,246,,,,,
CCOC(=O)c1cccs1,,,218,,,,,
CCCc1ccccc1,0.534,-99.5,159,readily biodegradable,0.602,2.87,-1.98,4.09
O=C1c2ccccc2C(=O)c2cc(Cl)ccc21,,211,,not readily biodegradable,,,,
CC(C)OC(=O)CCl,0.613,,150,,,,,
CCCCCCCCCCCCOCCCCCCCCCCCC,,,,readily biodegradable,,,,
COP(=S)(OC)Oc1ccc([N+](=O)[O-])c(C)c1,-4.27,3.4,,readily biodegradable,,2.63,-6.03,
O=C(O)COc1cccc(Cl)c1Cl,,174,,,,,,
N#Cc1ccc(F)cc1,,34.8,189,,,,,
CCCCCCCCC(C)=O,-0.571,14,210,readily biodegradable,,,,
Cc1cccc(C(C)(C)C)c1,,-41.4,189,,,,,
CC1CN(C2CCCCCCCCCCC2)CC(C)O1 (stereo not drawn),-5.44,71,,,,,,
O=C(O)CCCCCCCCCCBr,,57,,,,,,
COc1c(C)cccc1C,,,182,,,,,
Cc1cc2ccccc2nc1C,,68.5,263,,,,,
C=CC1(C(C)CCC)C(=O)NC(=O)NC1=O (stereo not drawn),,91,,,,,,
COc1ccc(C=O)cc1O,,114,,,,,,
CCCCC(C)CC (stereo not drawn),1.29,-100,118,,0.477,,,

SMILES,log10 vapour pressure (mmHg),melting point [°C],boiling point [°C],ready biodegradability,log10 biodegradation half-life (days),log10 Koc (L/kg),log10 Henry constant (atm·m³/mol),log10 Koa
CCCC(CC)C1(CC)C(=O)NC(=O)NC1=O (stereo not drawn),,122,,,,,,
CC=C(C)CC,2.2,-137,69,,,,,
ClCBr,2.15,-87.9,68,not readily biodegradable,,,,
Oc1ccc2ccc3cccc4ccc1c2c34,-8.32,180,,,,,,
CCOC(=O)CC(=O)c1ccc(OC)cc1,,,,readily biodegradable,,,,
C#C[C@]1(O)CC[C@H]2[C@@H]3CCC4=CC(=O)CCC4=C3C=C[C@@]21C,,169,,,,,,
CON(C(=O)c1cc(C)oc1C)C1CCCCC1,,33,,,,,,
FC(=C(F)C(F)(F)F)C(F)(F)F,3.3,-129,1.5,,,,,
CCCCCCCCCCCCCCCCCCOS(=O)(=O)[O-].[Na+],,212,,,,,,
C[C@@H]1CC[C@@]2(OC1)O[C@H]1C[C@H]3[C@@H]4CC[C@H]5C[C@@H](O)CC[C@]5(C)[C@H]4CC(=O)[C@]3(C)[C@H]1[C@@H]2C,,266,,,,,,
Nc1c(Br)cc([N+](=O)[O-])cc1[N+](=O)[O-],,154,,,,,,
O=C(O)c1ccc([N+](=O)[O-])cc1Cl,,140,,,,,,
CCCCNC(=O)OCC(C)(CCC)COC(N)=O (stereo not drawn),,50,,,,,,
Brc1ccc2[nH]ccc2c1,,91,,,,,,
COc1cc(OC)n2nc(S(=O)(=O)Nc3c(Cl)ccc(C)c3Cl)nc2n1,,211,,,,,,
Cc1nc(N(C)C)nc(OC(=O)N(C)C)c1C,-5.14,90.5,,,,1.9,,
O=Cc1c[nH]c2ccccc12,,196,,,,,,
CC1CCCCCC1,,,134,,,,,
O=C(O)c1ccc[nH]1,-5.65,,,,,,,
Cc1c(Br)cc(Br)cc1Br,,70,290,,,,,
Nc1ccc([N+](=O)[O-])cc1N,,200,,,,,,
O=[N+]([O-])c1ccccc1F,,-6,,,,,,
CNC(=O)ON=C(C)C(C)SC (stereo not drawn),-4.1,25,,,,,,
C#C[C@]1(O)CC[C@H]2[C@@H]3CCc4cc(O)ccc4[C@H]3CC[C@@]21C,,183,,,,,,

SMILES,log10 vapour pressure (mmHg),melting point [°C],boiling point [°C],ready biodegradability,log10 biodegradation half-life (days),log10 Koc (L/kg),log10 Henry constant (atm·m³/mol),log10 Koa
NNC(=O)c1ccc(N)cc1,,226,,,,,,
COc1ccc2c(c1OC)CN(C)CCc1cc3c(cc1C(=O)C2)OCO3,,160,,,,,,
Cc1cccc(CN)c1,,,204,,,,,
CCCCC(C)(C)O,0.317,,143,,,,,
COC(=O)c1cc(Oc2ccc(Cl)cc2Cl)ccc1[N+](=O)[O-],-7,85,,,,4,,
CC(O)CC(C)O (stereo not drawn),,,199,readily biodegradable,,,,
CC(C)=C1CCC(C)CC1 (stereo not drawn),,,173,,,,,
Nc1ncnc2c1ncn2[C@@H]1O[C@H](CO)[C@@H](O)[C@H]1O,,246,,,,,,
CC[C@H]1C[N@@]2CC[C@H]1C[C@H]2[C@H](O)c1ccnc2ccc(OCCC(C)C)cc12,,152,,,,,,
Oc1ccc2c(c1)[C@@]13CCCC[C@H]1[C@@H](C2)N(CCc1ccccc1)CC3,,244,,,,,,
COC1=C(O)C(=O)C(C)=C(O)C1=O,,202,,,,,,
O=c1ccc(=O)[nH][nH]1,,306,,readily biodegradable,,0.45,,
CC(C)=NO,,61,136,,,,,
CCOC(=O)c1ccc(Cl)cc1,,,238,,,,,
c1ccc(COP(OCc2ccccc2)OCc2ccccc2)cc1,,,,readily biodegradable,,,,
CC(C)(C)C1CCC(=O)CC1,,48.5,,,,,,
O=Cc1ccc(F)cc1,,-10,182,,,,,
CC(=O)O.CCCCCCCCCCCCNC(=N)N,-6.82,136,,,,,,
C=C(NC(C)=O)C(=O)CCC(N)=O,,130,,,,,,
C[C@]12C=CC(=O)C=C1CC[C@@H]1[C@@H]2CC[C@]2(C)OC(=O)CC[C@@H]12,,218,,,,,,
CCN(N)c1ccccc1,,,237,,,,,

# Same assay, conditions: fish
SMILES,log10 BCF,log10 biotransformation half-life (days)
O=C(O)c1cc2ccccc2cc1O,0.6,
CCCCCCCCCCCC,2.38,0.26
OCc1c(Cl)cccc1Cl,0.47,-1.37
Oc1ccc(-c2ccccc2)cc1,1.59,-0.81
Cc1ccccc1OP(=O)(Oc1ccccc1C)Oc1ccccc1C,,0.5
Nc1ccc2ccccc2c1S(=O)(=O)O,0.78,
O=C1c2ccccc2C(=O)c2cc(Cl)ccc21,2.28,-0.36
COP(=S)(OC)Oc1ccc([N+](=O)[O-])c(C)c1,1.95,0.03
ClCBr,0.6,-0.74
Clc1cc(-c2c(Cl)c(Cl)c(Cl)c(Cl)c2Cl)c(Cl)c(Cl)c1Cl,,2.68
